Common to all, as to format: in vivo, rat
The test system of data set [1] is Male Fisher 344 rats. The data set is described as follows: Plasma methionine sulfoxidation. The procedure: (§1) Animals and treatment protocol: Male Fisher 344 rats (260-280 g) obtained from Charles River Laboratories (Raleigh, N.C.) were used in all experiments. The animals were housed three to a cage. Autoclaved hardwood bedding was used in solid-bottom polycarbonate cages with filter tops. Animal rooms were maintained at 20-25° C. with 35-70% relative humidity with alternating 12-hour light and dark cycles. The rats had free access to deionized, reverse-osmosis-treated water and received autoclaved NIH 31 rodent chow (Zeigler Bros., Gardners, Pa.) ad libitum. For all experiments, rats were fasted overnight and then administered intraperitoneal injections of carbon tetrachloride in canola oil. Control rats received an equal volume of canola oil. Fasting continued throughout the experiment. Rats were anesthetized with Nembutal (0.1 ml/100 g body weight) and 5 ml blood was removed from the dorsal aorta proximal to its bifurcation into the common iliac arteries.
(§2) Carbon tetrachloride (CCL4) treatment: Animals from each of the three dose groups (Control-canola oil, 120 mg/kg CCl4 i.p. and 1200 mg/kg CCl4 i.p.) were investigated at three time points (2, 7, and 16 hours after CCl4 injection). Indomethacin-pretreated rats were also investigated at the same three time points, and the meclofenamic acid-pretreated rats were investigated at one time point (7 hours). Each group consisted of five rats for each analysis, except the meclofenamic acid pretreatment group which consisted of six rats. Animal treatment, sample preparation, assessment of liver histology and serum enzyme activities are described elsewhere (Kadiiska et al., 2000, Free Radic. Biol. Med. 28: 838-845; Jackson, 1989, J. Pharmacol. Exp. Ther. 250: 9-21) and were carried out at NIEHS, Research Triangle Park, N.C.
(§3) Plasma sample preparation: Blood (5 ml) was drawn through single draw Vacutainer® needles (21 Gauge) into open Vacutainer® blood collection tubes containing heparin. The tubes were gently inverted 2-3 times for mixing and immediately placed on ice. Blood was centrifuged (2,000 rpm for 10 minutes at 4° C.) no more than 30 minutes after collection, and the plasma was collected, frozen on dry ice and stored at −70° C.
Methionine sulfoxidation was measured according to Levine et al. (1996, Proc. Natl. Acad. Sci. USA 93: 15036-15040). In brief, serum samples were hydrolyzed with HCl. The methionine sulfoxide residue was converted to methionine, which represents the methionine sulfoxide level in the protein. The samples were analyzed on a Beckman Model 7300 amino acid analyzer. The methionine concentrations were measured at Weill Medical College of Cornell University, New York, N.Y., USA.

For data set [2], the system named is Male Fisher 344 rats. Kind of data set: Urinary free 8-iso-PGF2α by radioimmunoassay. The following applies: both doses of CCl4, 7 h. The procedure:
as §1
Meclofenamic acid pretreatment: Meclofenamic acid was injected at a dose of 5 mg/kg i.p. 12 h and 2 h prior to the injection of CCl4.
as §2, with “N.C. […]” for “N.C.”
In Experimental Example 2, urine samples were also analyzed for free 8-iso-PGF2α, without any extraction, by radioimmunoassay (Basu, 1998, Prost. Leuk. Ess. Fatty Acids. 58: 319-325). […]

Data set [3] deals with Male Fisher 344 rats. Kind of data set: Plasma TBARS after CCl4. The procedure:
as §1, §2, §3
Malondialdehyde (MDA) in plasma was measured using several different assays. In one assay in Experimental Example 1, free MDA and other thiobarbituric acid-reactive substances (TBARS) (MDA-protein adducts) were measured with the thiobarbituric acid (TBA assay) (Draper et al., 1993, Free Radic. Biol. Med. 15: 353-363). One ml of biological sample was combined with 2.0 ml of 1:1 TCA/TBA (30% trichloracetic acid and 0.67% thiobarbituric acid) in the presence of 200 mM butylated hydroxytoluene (BHT) for spectrophotometric readings (Porter et al., 1976, Biochim. Biophys. ACTA 441: 506-512). The incubation mixture was heated for 20 minutes in boiling water. The samples were centrifuged (2,000 rpm for 10 minutes at 4° C.), and the TBARS concentration was determined based on the absorbance at 532 nm measured with a Beckman DU-7 spectrophotometer at room temperature. Measurements were done at NIEHS, Research Triangle Park, N.C. in the case of Experimental Example 1.

Data set [4] deals with Male Fisher 344 rats. The data set is described as follows: Liver enzyme activities, histopathology and other clinical parameters after CCl4. The following applies: CCl4 120 and 1200 mg/kg; 2, 7, 16 h. The procedure:
as §1, with “Rats were anesthetized with Nembutal (0.1 ml/100 g body weight) and 5 ml blood was removed from the dorsal aorta proximal to its bifurcation into the common iliac arteries.” left out
Serum enzyme activities of lactic acid dehydrogenase (LDH), alanine aminotransferase (ALT), alkaline phosphatase (ALP), aspartate aminotransferase (AST), sorbitol dehydrogenase (SDH), 5′-nucleotidase (5′-NT), serum concentration of total bile acids (TBA), and liver histopathology were performed, as described (Kadiiska et al., 2000, Free Radic. Biol. Med. 28:838-845). In addition, other clinical parameters such as serum albumin, total protein, total iron, total iron binding capacity, nitrite/nitrate, and urinary creatinine were determined, using standard techniques known to those in the art.

The subject of data set [5] is Male Fisher 344 rats. Kind of data set: Plasma protein carbonyls. The procedure: as §1, §2, §3
Several different assays for oxidation products of proteins were employed. The protein carbonyl content (Agarwal and Sohal, 1995, Mech. Ageing Develop. 85: 55-63), indicative of plasma protein oxidative damage, was measured according to the method of Levine et al. (Levine et al., 1994, Meth. Enzymol. 233: 346-357), based on derivatization of carbonyls with tritiated borohydride, as described in detail by Yan and Sohal (2000, Current Protocols Protein Science 144: 105-128). The isolated protein was counted in a Beckman scintillation counter and calculated using a standard curve. The measurements were performed at the University of Southern California, Los Angeles.

In the case of `ClC(Cl)(Cl)Cl` [CCl4, Carbon tetrachloride], the Methionine sulfoxide was 2.3 % of total methionine in data set [1] (CCl4 120 mg/kg i.p., 2 h); 1.7 % of total methionine in data set [1] (CCl4 120 mg/kg i.p., 7 h); 3.1 % of total methionine in data set [1] (CCl4 120 mg/kg i.p., 16 h); 1.8 % of total methionine in data set [1] (CCl4 1200 mg/kg i.p., 2 h); 1.1 % of total methionine in data set [1] (CCl4 1200 mg/kg i.p., 7 h); 1.7 % of total methionine in data set [1] (CCl4 1200 mg/kg i.p., 16 h). Besides, the “urinary free 8-iso-PGF2α (radioimmunoassay)” value in data set [2] is recorded as “dose-dependent increase”. Also, the TBARS in data set [3] (CCl4 120 mg/kg i.p., 2 h) turned out to be 4.1 µM; in data set [3] (CCl4 120 mg/kg i.p., 7 h), 10.4 µM; in data set [3] (CCl4 120 mg/kg i.p., 16 h), 13.0 µM; in data set [3] (CCl4 1200 mg/kg i.p., 2 h), 4.2 µM; in data set [3] (CCl4 1200 mg/kg i.p., 7 h), 9.4 µM; in data set [3] (CCl4 1200 mg/kg i.p., 16 h) it was 10.7 µM. For the same molecule, in data set [4], the “plasma iron concentrations and total iron binding capacity” value is listed as “significantly increased only at the high dose at 16 hours”. In data set [4], the plasma nitrite/nitrate levels result was “significantly increased only at the high dose at all three time points”. The “Protein carbonyls (by HPLC)” value is recorded as 0.40 nmol/mg protein in data set [5] (CCl4 120 mg/kg i.p., 2 h); 0.42 nmol/mg protein in data set [5] (CCl4 120 mg/kg i.p., 7 h); 0.51 nmol/mg protein in data set [5] (CCl4 120 mg/kg i.p., 16 h); 0.53 nmol/mg protein in data set [5] (CCl4 1200 mg/kg i.p., 2 h); 0.59 nmol/mg protein in data set [5] (CCl4 1200 mg/kg i.p., 7 h); 0.48 nmol/mg protein in data set [5] (CCl4 1200 mg/kg i.p., 16 h).

These data come from patent US7833795B2, “Assessment of cardiovascular risk using isoprostane biomarkers and COX-2 selective inhibitors” (The Trustees of the University of Pennsylvania, priority 2004, dated 2010).
